The source made the active and inactive calls.
Assays:
[1] = target: T1, Polyadenylate-binding protein 1 (Homo sapiens, UniProt P11940); test: PABP1 MLLE–PAM2 interaction inhibitors, dose response, miRNA deadenylation inhibitor project, biochemical, fluorescence polarization, Cy5-PAM2 peptide, secondary (AID 602260); format: functional; settings: read-out: IC50_Mean
[2] = target: T1, Polyadenylate-binding protein 1; test: PABP1 MLLE–PAM2 binding inhibitor potency, dose response, biochemical, fluorescence polarization, FITC-PAM2 peptide (AID 602259); format: functional; settings: read-out: IC50_Mean
[3] = test system: Streptococcus sp. 'group A'; test: growth inhibition of control SK(-) GAS strain, dose response, counter-screen for streptokinase expression inhibitor project, luminescence, kanamycin, BacTiterGlo, confirmation (AID 1900); format: functional, organism-based
Streptokinase A = target: T2, Streptokinase A (Streptococcus pyogenes serotype M1, UniProt P10520); test: S. pyogenes streptokinase expression inhibitors, potency, dose response, plasminogen activation absorbance, OD405 (AID 1914); format: functional, Streptococcus pyogenes M1 GAS;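 further: secreted streptokinase activity via plasminogen activation per viability signal from cell pellet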
T2 sequence (P10520 whole entry): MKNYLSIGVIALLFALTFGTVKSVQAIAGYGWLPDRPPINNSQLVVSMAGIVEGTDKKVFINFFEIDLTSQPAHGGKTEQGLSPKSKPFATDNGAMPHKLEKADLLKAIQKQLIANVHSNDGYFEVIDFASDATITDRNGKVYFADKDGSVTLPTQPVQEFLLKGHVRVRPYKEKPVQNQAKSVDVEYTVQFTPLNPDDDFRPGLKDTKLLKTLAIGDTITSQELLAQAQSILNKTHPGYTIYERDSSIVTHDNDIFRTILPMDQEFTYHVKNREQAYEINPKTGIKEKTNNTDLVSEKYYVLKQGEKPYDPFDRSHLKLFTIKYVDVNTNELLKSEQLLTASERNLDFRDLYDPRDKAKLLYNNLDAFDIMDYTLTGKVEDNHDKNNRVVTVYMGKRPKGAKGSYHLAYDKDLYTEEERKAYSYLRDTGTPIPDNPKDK

[4] = inhibitors of intracellular T. cruzi replication, confirmation, NIH3T3 host cells, beta-gal luminescence (AID 2044); format: functional, cell-based;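 further: intracellular parasites grown in NIH/3T3 mouse fibroblasts as host cells; luminescent beta-galactosidase reporter signal from transgenic T. cruzi replicating inside host cells; inhibitors lower the luminescence signal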
[5] = growth suppression of PTEN-null colon cells, dose response, cell-based, HCT116 PTEN knockout (AID 1047); format: functional;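 further: HCT116 colon tumor cells with PTEN knocked out; cells exposed to compound for 60 hours before readout; potency for loss of cell viability measured by luminescence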
[6] = cytotoxicity toward NIH3T3 fibroblasts, dose response, counter-screen, cell-based, ATP luminescence, mouse fibroblasts (AID 2010); format: functional;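 further: cells exposed to compound for about 90 hours before reading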
[7] = growth suppression of beta-catenin-knockout colon cells, dose response, cell-based, HCT116, human colon tumor (AID 1045); format: functional;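 further: HCT116 colon tumor cells with beta catenin knocked out; cells exposed to compound for 60 hours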
Streptococcus = test: Group A Streptococcus viability loss, dose response, counter-screen for streptokinase expression inhibitor project, luminescence, BacTiterGlo (AID 1915); format: functional, organism-based;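 further: potency for reduction of bacterial viability or growth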
H9c2 = test: cells; format: functional, cell-based; settings: Rattus norvegicus, H9c2, Myocardium;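 further: confirmatory concentration-response retest of ultra-high-throughput screening hits for modulation of myocardial damage; cell death induced by hydrogen peroxide oxidative stress; compound pretreatment for 60 min then peroxide exposure for 2 h; potency is for protecting the cells against peroxide damage rather than for killing them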
[8] = target: T3, RNA-binding protein pos-1 (Caenorhabditis elegans, UniProt G5EF15); test: inhibitors of POS-1/mex-3 RNA binding, dose response, biochemical, fluorescence polarization (AID 1964);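 further: purified POS-1 fused to maltose binding protein made in E. coli; potency of compounds blocking POS-1 binding to fluorescent RNA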
T3 sequence (G5EF15 whole entry): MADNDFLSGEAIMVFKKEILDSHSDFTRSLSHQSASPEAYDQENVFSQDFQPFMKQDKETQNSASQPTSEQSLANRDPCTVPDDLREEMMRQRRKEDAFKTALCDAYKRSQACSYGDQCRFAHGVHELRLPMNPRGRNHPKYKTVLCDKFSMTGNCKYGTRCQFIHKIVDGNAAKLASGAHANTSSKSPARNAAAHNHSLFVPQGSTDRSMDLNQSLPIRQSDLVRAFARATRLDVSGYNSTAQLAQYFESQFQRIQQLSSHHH

[9] = target: T4, Zinc finger protein mex-5 (Caenorhabditis elegans, UniProt Q9XUB2); test: MEX-5/TCR-2 RNA interaction inhibitors, dose response, biochemical, C. elegans, fluorescence polarization (AID 1960)
T4 sequence (Q9XUB2 whole entry): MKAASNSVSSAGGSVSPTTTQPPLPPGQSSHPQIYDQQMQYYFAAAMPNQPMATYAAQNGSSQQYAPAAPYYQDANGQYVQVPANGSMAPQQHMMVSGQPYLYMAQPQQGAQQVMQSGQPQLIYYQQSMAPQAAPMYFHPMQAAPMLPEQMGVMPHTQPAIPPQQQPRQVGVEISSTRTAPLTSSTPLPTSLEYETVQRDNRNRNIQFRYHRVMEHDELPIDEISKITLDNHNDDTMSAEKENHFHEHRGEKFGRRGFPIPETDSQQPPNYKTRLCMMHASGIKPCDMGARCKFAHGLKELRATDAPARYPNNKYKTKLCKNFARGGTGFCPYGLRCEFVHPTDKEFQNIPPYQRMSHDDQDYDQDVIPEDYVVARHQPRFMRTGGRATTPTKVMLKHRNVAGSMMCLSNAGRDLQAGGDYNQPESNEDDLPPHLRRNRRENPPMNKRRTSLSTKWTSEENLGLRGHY

[10] = NIH-3T3 fibroblast cytotoxicity, dose response, cytotoxicity control, cell-based, fluorescence, Alamar Blue, secondary assay (AID 2327); format: functional;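 further: NIH-3T3 mouse fibroblasts cultured with fluconazole at 8 µg/mL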
[11] = C. albicans growth with fluconazole, confirmation, fluorescence, retest (AID 2467); format: functional, cell-based
[12] = Luminescence Cell-Based Dose Retest to Confirm Inhibitors of Cancer Stem Cells. [Related pubchem assays (depositor defined):AID2717, AID2721]; format: functional; settings: Homo sapiens
[13] = target: T5, Rac GTPase-activating protein 1 (Homo sapiens, UniProt Q9H0H5); test: MgcRacGAP GTPase-activating activity inhibitors, confirmation, biochemical, ADP Hunter fluorescence, primary and confirmatory (AID 624330); format: functional
T5 sequence (Q9H0H5 whole entry): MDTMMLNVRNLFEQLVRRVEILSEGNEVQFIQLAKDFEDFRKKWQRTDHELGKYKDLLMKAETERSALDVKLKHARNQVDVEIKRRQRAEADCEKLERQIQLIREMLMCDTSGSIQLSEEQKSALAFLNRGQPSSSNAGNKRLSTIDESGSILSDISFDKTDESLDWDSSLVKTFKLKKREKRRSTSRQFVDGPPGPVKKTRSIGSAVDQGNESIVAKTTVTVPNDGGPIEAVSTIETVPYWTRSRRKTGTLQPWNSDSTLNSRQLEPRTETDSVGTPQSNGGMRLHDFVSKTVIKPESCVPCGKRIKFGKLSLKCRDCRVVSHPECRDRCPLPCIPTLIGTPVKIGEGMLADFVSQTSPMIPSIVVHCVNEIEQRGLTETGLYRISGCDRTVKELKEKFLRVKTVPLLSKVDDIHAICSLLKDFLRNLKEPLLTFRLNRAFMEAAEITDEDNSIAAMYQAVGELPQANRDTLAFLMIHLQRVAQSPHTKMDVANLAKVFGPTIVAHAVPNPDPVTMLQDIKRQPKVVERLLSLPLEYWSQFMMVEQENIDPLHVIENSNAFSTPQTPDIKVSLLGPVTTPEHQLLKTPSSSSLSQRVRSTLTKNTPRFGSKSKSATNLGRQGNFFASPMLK

Leucine aminopeptidase = target: T6, Leucine aminopeptidase (Plasmodium falciparum 3D7, UniProt Q8IL11); test: P. falciparum M17LAP inhibitors, primary screen, biochemical, fluorogenic H-Leu-NHMec substrate, 1536-well (AID 1619); format: functional
T6 sequence (Q8IL11 whole entry): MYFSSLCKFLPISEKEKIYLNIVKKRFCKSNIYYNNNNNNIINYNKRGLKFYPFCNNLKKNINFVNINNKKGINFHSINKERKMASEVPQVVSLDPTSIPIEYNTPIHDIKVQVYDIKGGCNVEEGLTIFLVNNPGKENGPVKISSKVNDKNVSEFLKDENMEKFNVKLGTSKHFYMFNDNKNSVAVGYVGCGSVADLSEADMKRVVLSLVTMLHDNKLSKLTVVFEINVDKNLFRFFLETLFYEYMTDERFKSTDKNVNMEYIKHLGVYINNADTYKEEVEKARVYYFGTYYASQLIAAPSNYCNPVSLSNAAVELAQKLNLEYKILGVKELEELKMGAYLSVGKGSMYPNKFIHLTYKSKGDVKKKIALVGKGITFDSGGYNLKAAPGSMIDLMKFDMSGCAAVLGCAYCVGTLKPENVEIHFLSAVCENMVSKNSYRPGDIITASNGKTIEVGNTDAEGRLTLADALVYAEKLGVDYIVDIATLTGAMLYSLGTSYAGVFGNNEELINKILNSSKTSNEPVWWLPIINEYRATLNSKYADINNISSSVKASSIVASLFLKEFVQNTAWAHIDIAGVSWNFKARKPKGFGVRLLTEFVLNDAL
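Wherever AC50 is given: cells exposed to compound for roughly 70 hours or longer before luminescence read.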

T1 sequence (P11940 whole entry): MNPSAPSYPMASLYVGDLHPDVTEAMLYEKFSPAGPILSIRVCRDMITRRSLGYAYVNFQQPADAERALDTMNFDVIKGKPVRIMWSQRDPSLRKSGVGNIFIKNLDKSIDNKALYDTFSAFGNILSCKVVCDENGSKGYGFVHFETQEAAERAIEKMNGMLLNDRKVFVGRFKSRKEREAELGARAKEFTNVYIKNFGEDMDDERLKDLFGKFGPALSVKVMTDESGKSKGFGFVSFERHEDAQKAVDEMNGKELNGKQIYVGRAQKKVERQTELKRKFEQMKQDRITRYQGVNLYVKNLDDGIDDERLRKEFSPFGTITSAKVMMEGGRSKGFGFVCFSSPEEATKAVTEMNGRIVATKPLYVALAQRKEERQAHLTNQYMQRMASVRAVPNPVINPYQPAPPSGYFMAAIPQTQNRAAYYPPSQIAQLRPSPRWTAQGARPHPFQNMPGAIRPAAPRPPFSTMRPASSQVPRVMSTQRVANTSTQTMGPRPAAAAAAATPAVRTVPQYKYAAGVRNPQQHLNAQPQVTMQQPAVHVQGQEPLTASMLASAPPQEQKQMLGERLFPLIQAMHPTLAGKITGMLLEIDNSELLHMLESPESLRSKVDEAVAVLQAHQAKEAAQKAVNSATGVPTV

O=C(/C=C/c1ccc(-c2ccccc2[N+](=O)[O-])o1)c1ccco1
IC50 [1]: > 66 µM (inactive) | IC50 [2]: > 66 µM (inactive)

CC1=C(C(=O)Nc2ccc([N+](=O)[O-])cc2)C(c2cccc(C(F)(F)F)c2)N=C(S)N1c1ccccc1 (stereo not drawn)
EC50 [3]: 7.84 µM (active) | EC50 (Streptokinase A): 18.8 µM (active) | EC50 [4]: 2.05 µM (active) | EC50 [5]: 9.06 µM (active) | EC50 [6]: > 60 µM (inconclusive) | EC50 [7]: 11.5 µM (active) | EC50 (Streptococcus): 20.5 µM (active)

Cn1c(CCN2CCCCC2)nc2cc(NS(=O)(=O)c3ccc(F)cc3)ccc21
EC50 [5]: 51.6 µM (active) | EC50 [7]: 55.9 µM (active)

CCCN1C(=O)c2cc(C(=O)Nc3cccc(C(C)=O)c3)ccc2C1Nc1cccc(C(C)=O)c1 (stereo not drawn)
IC50 (H9c2): > 79 µM (inactive)

CCOc1ccccc1NC(=O)Nc1ccc(OC)nc1
EC50 [8]: 31.6 µM (active) | EC50 [9]: 29.5 µM (active) | IC50 [1]: > 66 µM (inactive) | IC50 [2]: 35.9 µM (inactive)

CC(C)C(NC(=O)c1cccs1)C(=O)NC1=NCCS1 (stereo not drawn)
IC50 [1]: > 66 µM (inactive) | IC50 [2]: > 66 µM (inactive)

Cc1ccc(-c2nc3ccccc3o2)cc1NC(=S)NC(=O)c1cc2ccccc2o1
EC50 [5]: 5.17 µM (active) | EC50 [7]: 4.68 µM (active)

COc1cc(C(=O)Nc2cccc(-c3nnc(-c4ccco4)o3)c2)ccc1OC(C)=O
IC50 (H9c2): > 79 µM (inactive)

CCOC(=O)c1cn(-c2ccc(F)c(F)c2)c2c(F)c(F)c(F)c(F)c2c1=O
EC50 [5]: 19.5 µM (active) | EC50 [7]: 22.4 µM (active)

O=c1c2ccccc2nc(CSc2[nH]cnc3ncnc2-3)n1-c1ccc(Cl)c(Cl)c1
IC50 (H9c2): > 79 µM (inactive)

Cc1cc2cc(CNC(=O)c3ccc4c(c3)OCO4)ccc2n1C
IC50 [1]: > 66 µM (inactive) | IC50 [2]: > 66 µM (inactive)

CC(=O)Nc1sc(C)c(C)c1C(=O)OCC(=O)Nc1cc(S(=O)(=O)N2CCCCC2)ccc1Cl
EC50 [5]: 43.1 µM (active) | EC50 [7]: 133 µM (active)

O=C(COC(=O)Cn1[nH]c(=O)c2ccccc2c1=O)Nc1c(Cl)cccc1C(F)(F)F
IC50 (H9c2): > 79 µM (inactive)

Cc1cccc(Nc2nc(N)nc(CC(=O)CSc3ccc(Cl)cc3)n2)c1
EC50 [5]: 56 µM (active) | EC50 [7]: 35.6 µM (active)

Cc1ccc(C2(c3noc(CN4CCC(c5ccncc5)CC4)n3)CCCC2)cc1
EC50 [10]: 19.7 µM (active) | EC50 [11]: > 38 µM (not active) | AC50 [12]: 0.772 µM (active)

O=C(COC(=O)c1c2c(nc3ccccc13)/C(=C/c1cccc([N+](=O)[O-])c1)CCC2)NC1CCS(=O)(=O)C1 (stereo not drawn)
IC50 (H9c2): 11.1 µM (active)

COc1ccc(Nc2nc(Nc3ccc(OC)cc3OC)nc(N3CCN(C)CC3)n2)c(OC)c1
IC50 (H9c2): > 79 µM (inactive)

Cc1ccc([N+](=O)[O-])cc1NC(=S)NC(=O)c1cccnc1
IC50 [1]: > 66 µM (inactive) | IC50 [2]: > 66 µM (inactive)

Cc1ccc(N(CC(N)=O)C2SC(=O)N(Cc3ccccc3)C2=O)cc1 (stereo not drawn)
IC50 [1]: > 66 µM (inactive) | IC50 [2]: > 66 µM (inactive)

CCN(c1ccccc1)S(=O)(=O)c1ccc(Cl)c(NC(=O)CN(C)C2CCN(C)CC2)c1
EC50 [10]: > 150 µM (inactive) | EC50 [11]: 3.82 µM (active) | EC50 [4]: 0.395 µM (active) | EC50 [6]: > 60 µM (not active) | IC50 [13]: 80.2 µM (active)

Cc1noc(NS(=O)(=O)c2ccc(N/C=C\C(=O)c3ccc4c(c3)OCO4)cc2)c1C
IC50 (Leucine aminopeptidase): 13.9 µM (active)

CC(=O)Nc1cccc(NC(=O)Cc2nc(-c3ccccc3)sc2-c2ccc(C)cc2)c1
EC50 [5]: 17.1 µM (active) | EC50 [7]: 16.6 µM (active)

Sc1ncnc2c1ncn2C1CCCO1 (stereo not drawn)
IC50 [1]: > 66 µM (inactive) | IC50 [2]: > 66 µM (inactive)

CN(C)c1cc2c3ccccc3n(C)c2cc1N
IC50 [1]: > 66 µM (inactive) | IC50 [2]: 22.8 µM (inactive) | IC50 [13]: 12.7 µM (active)

O=C(NCCCCNC(=O)c1nc[nH]c1C(=O)Nc1cccc(Cl)c1)c1nc[nH]c1C(=O)Nc1cccc(Cl)c1
IC50 (H9c2): > 79 µM (inactive)

O=C(N/N=C/c1cn(-c2ccccc2)nc1-c1cccnc1)c1cccnc1
IC50 (H9c2): > 79 µM (inactive)

Cn1nc(C(F)(F)F)c(C(=O)Nc2cccc(C(F)(F)F)c2)c1SCc1ccc(Cl)cc1
EC50 [5]: 22.4 µM (active) | EC50 [7]: 26.7 µM (active) | AC50 [12]: 6.27 µM (active)

— ChEMBL document CHEMBL1201862, “PubChem BioAssay data set” (2004)
